{"source": "patent US4428943A", "about": "“(N-Phosphonacetyl-L-aspartato) (1,2-diaminocyclohexane)platinum(II) or alkali metal salt” (priority 1981, dated 1984)", "key": {"[1]": {"tested_on": "L1210 leukemia", "assay": "Survival of mice bearing L1210 leukemia, Pt-268 alone (LD50, optimal dose, therapeutic safety ratio)", "type": "in vivo, mice (BDF1)", "protocol": "Mice received 10^6 L1210 cells on Day 0 via intraperitoneal route. Pt-268 was given intraperitoneally on Day 1 only in 5% glucose solution.\nMice received 10^6 L1210 cells on Day 0 via intraperitoneal route. Pt-268 was given intraperitoneally on Days 1, 5, and 9 in 5% glucose solution.\nThe BDF1 mice received 10^6 L1210 leukemia cells by I.P. injection on Day 0 and were divided into groups of 10, including a control group of 40 mice. The treated groups were treated on Day 1 only at different dose levels from 10 mg/kg to 200 mg/kg or treated on Days 1, 5, and 9 at dose levels from 2.5 mg/kg to 50 mg/kg."}, "[2]": {"tested_on": "L1210 cells", "assay": "Combination of Pt-268 with cisplatin in mice bearing L1210 leukemia (FIG. 4)", "type": "in vivo, BDF1 mice", "settings": "5 mg/kg on Day 3, alone", "protocol": "Mice were given an inoculum of 10^6 L1210 cells.\nWith reference to FIG. 4, BDF1 mice were given an inoculum of 10^6 L1210 cells. On Day 3, one grop received NSC-314926, 5 mg/kg. […] Another group received the two drugs in combination on the same schedule."}, "[3]": {"tested_on": "Ehrlich ascites carcinoma", "assay": "Survival times of BDF1 mice bearing the Ehrlich ascites carcinoma", "type": "in vivo", "settings": "Day 1 only; for T/C × 100: treated/control survival time", "source_text": "In addition to testing with L1210 leukemia, satisfactory responses against tests by additional animal cancer organisms have been shown as, for example, Ehrlich ascites tumor, melanoma B-16 and Colon 38. Testing was achieved using either the alkali metal (sodium) salt or the free acid.\nMice received an intraperitoneal inoculation of 10^7 tumor cells on Day 0; treatment was by the intraperitoneal route on Day 1 only. NSC-314926 [N-phosphonacetyl-L-aspartato(1,2-diaminocyclohexane)platinum(II)] was dissolved in 5% dextrose solution. There were 10 mice per group."}, "[4]": {"assay": "Solubility", "type": "physicochemical", "protocol": "One ml of each of the following solvents dissolved approximately 2 mg of Pt-268: […]"}, "[5]": {"assay": "Solubility", "type": "physicochemical", "remark": "listed apart in the source"}}}
{"substance": "N-phosphonacetyl-L-aspartato(1,2-diaminocyclohexane)platinum(II), Na [Pt-268]", "values": [{"measurement": "therapeutic safety ratio (LD50/OptD50)", "setting": "[1]; I.P. LD50 / I.P. dose which is 50% of the optimal therapeutic dose", "value": 4.5}, {"measurement": "optimal therapeutic dose", "setting": "[1]; L1210, I.P., Day 1 only, 5% glucose", "value": "approximately 80 mg/kg"}, {"measurement": "optimal dose", "setting": "[1]; L1210, I.P., Days 1, 5, and 9, 5% glucose", "value": "approximately 20 mg/kg"}, {"measurement": "LD50", "setting": "[1]; tumored BDF1 mice (10^6 L1210 cells I.P.)", "value": 180, "unit": "mg/kg"}, {"measurement": "effect on median life span, single agent", "setting": "[2]", "value": "hardly effective"}, {"measurement": "Survival Time", "setting": "[3]; 5 mg/kg I.P.", "value": 16.5, "unit": "days"}, {"measurement": "T/C × 100", "setting": "[3]; 5 mg/kg I.P.", "value": 123}, {"measurement": "Survival Time", "setting": "[3]; 10 mg/kg I.P.", "value": 18.8, "unit": "days"}, {"measurement": "T/C × 100", "setting": "[3]; 10 mg/kg I.P.", "value": 140}, {"measurement": "Survival Time", "setting": "[3]; 20 mg/kg I.P.", "value": 24.3, "unit": "days"}, {"measurement": "T/C × 100", "setting": "[3]; 20 mg/kg I.P.", "value": 181}, {"measurement": "Survival Time", "setting": "[3]; 40 mg/kg I.P.", "value": 25.3, "unit": "days"}, {"measurement": "T/C × 100", "setting": "[3]; 40 mg/kg I.P.", "value": 189}, {"measurement": "Survival Time", "setting": "[3]; 60 mg/kg I.P.", "value": 28.8, "unit": "days"}, {"measurement": "T/C × 100", "setting": "[3]; 60 mg/kg I.P.", "value": 215}, {"measurement": "Survival Time", "setting": "[3]; 80 mg/kg I.P.", "value": 29.0, "unit": "days"}, {"measurement": "T/C × 100", "setting": "[3]; 80 mg/kg I.P.", "value": 216}, {"measurement": "Survival Time", "setting": "[3]; 100 mg/kg I.P.", "value": 31.7, "unit": "days"}, {"measurement": "T/C × 100", "setting": "[3]; 100 mg/kg I.P.", "value": 237}, {"measurement": "Solubility of a 2-mg sample", "setting": "[4]; CHCl3", "value": "very slightly soluble or insoluble"}, {"measurement": "Solubility of a 2-mg sample", "setting": "[4]; acetone", "value": "very slightly soluble or insoluble"}, {"measurement": "Solubility of a 2-mg sample", "setting": "[4]; cyclopentanone", "value": "very slightly soluble or insoluble"}, {"measurement": "Solubility of a 2-mg sample", "setting": "[4]; dimethylformamide", "value": "very slightly soluble or insoluble"}, {"measurement": "Solubility of a 2-mg sample", "setting": "[4]; dimethylsulfoxide", "value": "very slightly soluble or insoluble"}, {"measurement": "Solubility of a 2-mg sample", "setting": "[4]; ethanol", "value": "very slightly soluble or insoluble"}, {"measurement": "Solubility of a 2-mg sample", "setting": "[4]; heptane", "value": "very slightly soluble or insoluble"}, {"measurement": "Solubility of a 2-mg sample", "setting": "[4]; t-butanol", "value": "very slightly soluble or insoluble"}, {"measurement": "Solubility of a 2-mg sample", "setting": "[4]; tetrahydrofuran", "value": "very slightly soluble or insoluble"}, {"measurement": "Solubility in CH3OH", "setting": "[5]; CH3OH", "value": "~ 0.2 mg/ml"}, {"measurement": "Solubility in water", "setting": "[5]; water", "value": "~ 175 mg/ml"}]}
